Data taken from patent publication US20090215841A1, “D2 Receptor Ligand-078” (ASTRAZENECA AB, priority 2008, published 2009).

Tests used:
[1] = target: D2s receptor (membranes from D2s stably-transfected CHO cells) (Homo sapiens, UniProt P14416); experiment: GTPγS assay, block of dopamine-stimulated [35S]-GTPγS binding
Procedure: GTPγS assay was performed substantially as described by Lazareno. […] Antagonist activity of compounds was determined by the ability of test compounds to block dopamine-stimulated [^35S]-GTPγS binding to cell membranes from D2s stably-transfected CHO cells.

D2S receptor = D2S receptor (Homo sapiens, UniProt P14416); experiment: D2 receptor binding assay ([3H]-raclopride displacement)
Procedure: The ability of test compounds to displace ^3H-raclopride at the D2S receptor was determined on membranes from D2s-transfected CHO cells (Bmax 13 pmol/mg protein). An assay uses a standard 96-well glass fiber filter plate to retain radioligand bound by the receptor. Retained ^3H is determined in a TopCount scintillation plate counter following the addition of a liquid scintillant to each well. Compounds are evaluated for their potency using competition curve analysis, resulting in calculated Ki values.

Male Long-Evans rats = experiment: Conditioned Avoidance Responding (CAR) assay; format: in vivo, rat; details: for motor impairment in CAR (shock escapes): dose not stated; for efficacy in CAR (shock avoidance): rats, dosed 60 min prior to testing
Procedure: Male Long-Evans rats were trained to traverse to the opposite side of a standard shuttle cage following presentation of an auditory and visual stimulus in order to avoid delivery of electric shock to the floor of the cage. Daily sessions consisted of up to 80 trials. If shock was delivered, animals always had the opportunity to escape the shock by traversing to the opposite side of the cage. Drug was administered (via s.c. or p.o. route) 60 min prior to testing and the percentage of trials in which shock was avoided and escaped was recorded.

[2] = system: rat plasma prolactin levels; experiment: Prolactin assay (plasma prolactin by ELISA); format: in vivo; details: male Sprague Dawley rats, s.c., one-hour post dose
Source text: As discussed above, hyperprolactinemia is a side effect that can be observed following administration of D2 antagonists. In contrast, administration of D2 agonists to human subjects results in large reductions in prolactin levels in blood (hypoprolactinemia).
Male Sprague Dawley rats were subcutaneously administered with vehicle or test compounds. Trunk blood was collected one-hour post dose and plasma evaluated by an ELISA assay to determine prolactin levels.

[3] = system: D-amphetamine hyperlocomotion in habituated rats; experiment: D-amphetamine-induced hyperlocomotor activity (LMA) in habituated rat model; details: in vivo, sc, 1 mg/kg
Procedure: LMA was assessed in male Long Evans rats using a paradigm that included a habituation phase followed by administration of 1 mg/kg D-amphetamine. Animals were allowed to acclimatize to the testing room for 1 hour before being weighed and placed into activity chambers. Thirty minutes after LMA measurements began, animals were briefly removed, subcutaneously dosed with vehicle or test drug at different doses (μmol/kg), and returned to the chambers. After 30 minutes, animals were again removed and dosed with vehicle or D-amphetamine at 1 mg/kg (s.c.). After returning animals to the activity chambers, LMA was assessed for 60 minutes. […] Statistical analysis was made of total distance traveled after D-amphetamine administration using ANOVA and Tukey's post hoc analysis where appropriate. All values are expressed as Mean and SD.

CF-1 male mice = experiment: Catalepsy assay, mice; format: in vivo, mouse
Procedure: (§1) CF-1 male mice or Sprague Dawley rats are dosed (via i.p., p.o. or s.c. route) with a test compound at given concentrations or a vehicle. […] The length of time (in seconds) during which each mouse maintains the initial forepaw bar position is recorded (cataleptic pose). Maximum cut-off observation time is 60 seconds. Results are expressed as means (in sec) for each dose group.

Sprague Dawley rats = experiment: Catalepsy assay, rats; format: in vivo, rat
Procedure: as §1

Sequence of D2s receptor (membranes from D2s stably-transfected CHO cells) (P14416 1-414 isoform P14416-2): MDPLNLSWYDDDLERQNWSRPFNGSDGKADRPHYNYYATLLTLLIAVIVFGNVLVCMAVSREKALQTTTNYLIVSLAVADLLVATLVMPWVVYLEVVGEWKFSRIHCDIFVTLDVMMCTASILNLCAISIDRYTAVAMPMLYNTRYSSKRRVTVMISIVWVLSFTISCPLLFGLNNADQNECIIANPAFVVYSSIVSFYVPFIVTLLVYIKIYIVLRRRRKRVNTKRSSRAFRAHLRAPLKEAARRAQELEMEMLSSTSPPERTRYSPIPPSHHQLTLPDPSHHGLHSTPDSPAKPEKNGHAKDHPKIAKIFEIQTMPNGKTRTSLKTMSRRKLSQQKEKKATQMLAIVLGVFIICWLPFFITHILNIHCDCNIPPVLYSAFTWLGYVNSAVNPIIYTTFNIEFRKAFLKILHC
Sequence of D2S receptor (P14416 1-414 isoform P14416-2): as above

Row | SMILES | IC50 [1] [nM] | Ki (D2S receptor) [nM] | motor impairment in CAR (shock escapes) (Male Long-Evans rats) | efficacy in CAR (shock avoidance) (Male Long-Evans rats) | no observable effect level (NOEL) on plasma prolactin [2] [µmol/kg] | MED, reversal of LMA [3] [µmol/kg] | catalepsy (CF-1 male mice; 30 μmol/kg) | catalepsy (CF-1 male mice; positive control) | catalepsy (Sprague Dawley rats)
1 | CN[C@@H]1Cc2cc3nc(N)sc3cc2C1 | 417 | 151 |  |  |  |  |  |  | 
2 | CCN(CC)[C@@H]1Cc2cc3nc(N)sc3cc2C1 | 74.1 | 21.9 |  |  |  |  |  |  | 
3 | O=C1CCc2ccc(OCCCCN3CCN(c4cccc(Cl)c4Cl)CC3)cc2N1 [Aripiprazole] |  |  | exhibited motor impairment | effective | 2.2 |  |  |  | 
4 | CCCN[C@@H]1Cc2cc3nc(N)sc3cc2C1 [Compound C3] | 437 | 115 | exhibited motor impairment | effective | 10 | 10 | exhibited catalepsy |  | 
5 | O=C(CCCN1CCC(O)(c2ccc(Cl)cc2)CC1)c1ccc(F)cc1 [Haloperidol] |  |  | exhibited motor impairment | effective |  |  |  | induced catalepsy | induced catalepsy
6 | Cc1nc2n(c(=O)c1CCN1CCC(c3noc4cc(F)ccc34)CC1)CCCC2 [Risperidone] |  |  |  |  | 0.07 |  |  |  | 
